Experimental data reported in paper PMC2790104, “Effects of Acrylamide on the Activity and Structure of Human Brain Creatine Kinase” (International Journal of Molecular Sciences, 2009).

Biological target: T1, HBCK (human brain-type creatine kinase, human BB-CK) (Homo sapiens, UniProt P12277)
T1 construct: gene CKB; homodimer BB; identified by LC-MS/MS
Assay: residual activity after […] h incubation, pH-colorimetric assay (thymol blue, […] nm)
Format: biochemical

T1 sequence (P12277 2-381): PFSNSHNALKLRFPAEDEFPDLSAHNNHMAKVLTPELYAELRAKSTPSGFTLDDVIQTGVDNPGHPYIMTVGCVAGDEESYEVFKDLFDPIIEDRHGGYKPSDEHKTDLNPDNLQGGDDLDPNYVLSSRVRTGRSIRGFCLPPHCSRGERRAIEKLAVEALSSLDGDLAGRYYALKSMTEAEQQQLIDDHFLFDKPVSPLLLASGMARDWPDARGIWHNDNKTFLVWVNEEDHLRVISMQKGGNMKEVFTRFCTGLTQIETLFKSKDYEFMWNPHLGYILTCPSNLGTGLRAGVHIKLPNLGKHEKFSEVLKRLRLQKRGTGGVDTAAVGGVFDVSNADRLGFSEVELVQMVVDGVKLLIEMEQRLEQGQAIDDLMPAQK

In the case of `C=CC(N)=O` [acrylamide], the IC50 is reported as roughly 50 mM.
